Common to all, as to assay: NCI anticancer screen, dose series, 48 h
Assay [1] relates to M19-MEL melanoma.
The subject of assay [2] is DMS 273 small cell lung.
For assay [3], the system named is RXF-631 renal.
Assay [4] has as its system DLD-1 colon.
The subject of assay [5] is LXFL 529 NSCLC.
Assay [6] deals with HOP-18 NSCLC.
Assay [7] concerns XF 498 CNS.
The test system of assay [8] is MDA-N.

SMILES strings stand for the structures.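 Compound exposure: 48 hours, 5 concentrations, 96-well plates. Here, GI50 denotes the concentration required for 50% inhibition of growth. Definition used: TGI = concentration required for complete inhibition of growth.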

For the compound `CN(C)NC1=C([N+](=O)[O-])C=NN(c2ccccc2)C1`, the TGI in assay [1] came out at 3.23 µM; in assay [2], 3.18 µM; in assay [3], 3.33 µM; in assay [4] it was 3.6 µM; in assay [5] it was 3.03 µM; in assay [6], 3.25 µM. For the same compound, the TGI in assay [7] came to 3.93 µM.
For `N#C/C(=C\c1c(O)cc(O)cc1O)C(N)=O`, the TGI in assay [2], in assay [3], in assay [4], in assay [5] and in assay [7] was greater than 100 µM throughout.
As for `CCC12C=CCN(CCc3c([nH]c4ccccc34)/C=C\1)C2` (stereo unspecified), the TGI in assay [1], in assay [2], in assay [3], in assay [5], in assay [6] and in assay [7] was greater than 100 µM each time.
As to `O=C(O)c1ccc2c(c1)C(=O)N(c1ccc(S(=O)(=O)c3ccc(N4C(=O)c5ccc(C(=O)O)cc5C4=O)cc3)cc1)C2=O`, the TGI in assay [1], in assay [2], in assay [5] and in assay [7] was greater than 100 µM in each case.
Consider `COC(=O)c1c(O)ccc(O)c1C(C(C)=O)C(C)=O`, for which the TGI in assay [1], in assay [2], in assay [4], in assay [5] and in assay [7] was greater than 100 µM each time.
In assay [8], `Cc1ccc(N(C=O)c2c([N+](=O)[O-])cc([N+](=O)[O-])c3c2=[N+]([O-])CN=3)cc1` came in with a TGI greater than 100 µM.
Take `Cc1ccc2c(c1)-c1c3c(nn1C)-c1ccccc1SC3O2` (stereo unspecified): the TGI in assay [1] is greater than 100 µM; in assay [2], greater than 100 µM; in assay [4], greater than 100 µM; in assay [5], greater than 100 µM; in assay [6] it was greater than 100 µM; in assay [7], 88.5 µM.
Turning to `C/C=C(\N=C=S)C(=O)OC1C(COC(C)=O)OC([C@]2(O)CC(=O)C(=N)C(C(=O)O)=C2O)C(O)C1OC1CC(OC)C(O)([C@@H](C)OC(=O)[C@@H](C)CC)C(C)O1` (stereo partly specified), the TGI in assay [1] came to 6.24 µM; in assay [8], 26.5 µM; in assay [2], 32.1 µM; in assay [4], 24.9 µM; in assay [5], 4.16 µM; in assay [6], 30.4 µM. This compound also showed a TGI in assay [7] of 5.92 µM.
Consider `O=C(/C=C/c1ccc(Cl)c(Cl)c1)c1ccccc1Cl`, for which the TGI worked out at 17.2 µM in assay [1]; 14.5 µM in assay [2]; 31.4 µM in assay [3]; 10.4 µM in assay [4]; 19.6 µM in assay [5]; 25.3 µM in assay [6]. The TGI in assay [7] came to 33.3 µM.
Turning to `COc1cccc2c1C(=O)c1c(O)c3c(c(O)c1C2=O)C[C@@](O)(C(=O)CO)CC3OC1CC(N)C(OC2CCCCO2)C(C)O1` (stereo partly specified), the TGI in assay [8] was 0.362 µM; in assay [2], 7.18 µM; in assay [4], 17.8 µM; in assay [5] it was 3.14 µM; in assay [6] it was 1.06 µM; in assay [7], 1.47 µM.
In the case of `Cc1ccccc1NC(=O)/C(=N\NC(N)=S)C(C#N)c1ccccc1` (stereo unspecified), the TGI in assay [1], in assay [2], in assay [3], in assay [4], in assay [5] and in assay [6] was greater than 100 µM throughout.
In the case of `Cc1cccc(C)c1NC(=O)CCC(=O)NC(N)=NC#N`, the TGI in assay [1], in assay [3], in assay [4], in assay [5], in assay [6] and in assay [7] was greater than 100 µM each time.
With `CCOC(=O)C1=C(C)NC(=O)NC1c1ccc(OC)cc1OC` (stereo unspecified), the TGI in assay [1], in assay [2], in assay [4], in assay [5], in assay [6] and in assay [7] was greater than 100 µM in each case.
Consider `Nc1cccc2c1-c1c(cccc1[N+](=O)[O-])C2=O`, for which the TGI in assay [1], in assay [2], in assay [4] and in assay [6] was greater than 100 µM throughout.
Consider `O=c1nc2sc3ccccc3c(=O)n2[nH]1`, for which the TGI in assay [1], in assay [2], in assay [3], in assay [4], in assay [5] and in assay [6] was greater than 100 µM each time. In assay [7], this compound displayed a TGI greater than 100 µM.
Turning to `C[C@]12CC[C@H](O[C@@H]3O[C@H](CO[C@@H]4O[C@H](CO)[C@@H](O)[C@H](O)[C@H]4O)[C@@H](O)[C@H](O)[C@H]3O)C[C@@H]1CC[C@@H]1[C@@H]2CC[C@]2(C)[C@@H](C3=CC(=O)OC3)CC[C@]12O`, the TGI in assay [8] was found to be 93.5 µM.
As for `CC(=O)OCC1OC(n2cccnc2=O)C(OC(C)=O)C1OC(C)=O` (stereo unspecified), the TGI in assay [1], in assay [2], in assay [3], in assay [4], in assay [5] and in assay [6] was greater than 100 µM each time. Further, in assay [7], the TGI is greater than 100 µM.
`CC1(C)C(=O)OC(n2cc(F)c(=O)[nH]c2=O)C1=O` (stereo unspecified): the TGI in assay [1], in assay [4], in assay [5], in assay [6] and in assay [7] was greater than 100 µM in each case.
Take `O=C(O)CCC(c1ccccc1)(c1ccccc1)c1ccccc1`: in assay [8], the TGI is greater than 100 µM.
With `Cc1ccc(S(=O)(=O)OCOS(=O)(=O)c2ccc(C)cc2)cc1`, the TGI in assay [1], in assay [2], in assay [4], in assay [5] and in assay [6] was greater than 100 µM in each case.
Take `N#Cc1c2ccccc2c(Cc2ccc3c(c2)OCCOCCOCCOCCOCCO3)c2ccccc12`: the TGI in assay [2] turned out to be 17.8 µM; in assay [4], 22 µM; in assay [5], 30.4 µM; in assay [6], 21.8 µM; in assay [7], 23.5 µM.
`CC(=Nc1ccc(N(C)C)cc1)c1ccccc1` registered a TGI in assay [8] of 52.2 µM.
In the case of `Cc1ccccc1NC(=O)Cc1nc2ccccc2s1`, the TGI in assay [2] is 37.6 µM; in assay [3], 32.3 µM; in assay [4], greater than 100 µM; in assay [5] it was 29.9 µM; in assay [6], 17.2 µM; in assay [7], 27.6 µM.
In assay [8], `O/N=C(\CC(O)(C(F)(F)F)C(F)(F)F)c1cccs1` returned a TGI greater than 10 µM.
As for `CC1(C)c2ccccc2N2C(c3ccccc3)=NOC21C` (stereo unspecified), the TGI in assay [1], in assay [2], in assay [3], in assay [4], in assay [5] and in assay [6] was greater than 100 µM in each case.
In turn, `C/C(=N\NC(=O)c1ccncc1)c1sc(-n2nc(-c3ccccc3)cc2-c2ccccc2)nc1C` displayed a TGI in assay [8] greater than 100 µM.
As to `C[P+]1(Cc2ccccc2)CCCC1`, the TGI in assay [1], in assay [2], in assay [4], in assay [5] and in assay [6] was greater than 100 µM throughout.
On to `CCOC(=O)C1=C(OC(OCC)C([Se]c2ccccc2)C(C)C)CCC1` (stereo unspecified), for which the TGI in assay [1] was found to be 34.9 µM; in assay [2] it was 20 µM; in assay [4] it was 33.8 µM; in assay [5], 29.5 µM; in assay [6], 41.3 µM; in assay [7], 26.4 µM.
In the case of `O=C(NC1CC1)c1c(O)[nH]c(=S)[nH]c1=O`, the TGI in assay [1], in assay [3], in assay [4], in assay [5] and in assay [6] was greater than 100 µM in each case.
As for `CC(=O)[CH-]C(=O)c1ccccc1.CC(=O)[CH-]C(=O)c1ccccc1.Cl.[O-]c1ccnc2ccccc12.[O-]c1ccnc2ccccc12.[Ti+4]`, the GI50 in assay [4], in assay [5] and in assay [6] was greater than 100 µM throughout. Also, the TGI in assay [4], in assay [5] and in assay [6] was greater than 100 µM in each case.
Regarding `Cc1cccc(NC(=O)C(=O)C(C2OC(=O)c3ccccc32)[N+](=O)[O-])c1C` (stereo unspecified), the TGI in assay [1] stood at 3.91 µM; in assay [2], 10.3 µM; in assay [3] it was 33.7 µM; in assay [4], 23.1 µM; in assay [5], 20.3 µM; in assay [6], 22.3 µM. Moreover, the TGI in assay [7] worked out at 18.7 µM.
Turning to `C/C=C/C(=O)Oc1cccc2cccnc12`, the TGI is 38.6 µM in assay [1]; 46.9 µM in assay [2]; 21 µM in assay [4]; greater than 100 µM in assay [5]; greater than 100 µM in assay [6]; 55.2 µM in assay [7].
`CC(=O)OC1CCC2OOC1O2` (stereo unspecified): the TGI in assay [1] and in assay [2] was greater than 100 µM in each case.
Take `CN(C)NC(=O)/C(=C/c1ccc(Cl)cc1)NC(=O)c1ccccc1`: the TGI in assay [1], in assay [2], in assay [3], in assay [4], in assay [5] and in assay [6] was greater than 100 µM in each case. Further, in assay [7], the TGI is greater than 100 µM.
Turning to `Brc1ccccc2cc(-c3ccccc3)nc1-2`, the TGI was 29.4 µM in assay [8]; 16.4 µM in assay [2]; greater than 53.3 µM in assay [3]; 3.74 µM in assay [4]; 3.25 µM in assay [5]; 13.9 µM in assay [6]. In assay [7], this compound had a TGI of 3.44 µM.
On to `Cn1[nH]cc2ccc3nc4ccccc4c(=O)c3c21`, for which the TGI in assay [1] is 46.8 µM; in assay [2] it was greater than 100 µM; in assay [3], greater than 66.1 µM; in assay [4], greater than 100 µM; in assay [5] it was greater than 100 µM; in assay [6], greater than 100 µM.
In the case of `CCOC(=O)c1cc(=O)n(C)c(=O)n1C`, the TGI in assay [1], in assay [2], in assay [4], in assay [5], in assay [6] and in assay [7] was greater than 100 µM in each case.
Regarding `O=C1c2ccccc2C(=O)N1CCCOCc1c[nH]c(=O)[nH]c1=O`, the TGI in assay [1], in assay [2], in assay [3], in assay [4], in assay [5] and in assay [6] was greater than 100 µM each time. For the same compound, in assay [7], the TGI is greater than 100 µM.
In assay [8], `COc1cc(OCc2ccccc2)c2c(CCC(=O)O)cc(=O)oc2c1` (tested in a mixture with another compound) showed a TGI greater than 100 µM.
Turning to `COc1ccc(Oc2nc3cc(N)cc(N)c3nc2-c2ccccc2)cc1`, in assay [8], the GI50 was 35.2 µM and the TGI was greater than 100 µM.
`NS(=O)(=O)c1ccc(N=Nc2ccc[nH]c2=O)cc1` had a TGI in assay [8] greater than 100 µM.
